Our source for the Ki values is US8530489B2 (Vertex Pharmaceuticals Incorporated, priority 2006, dated 2013).

As a reminder, the pKi is −log10 of the Ki, conventionally taken in molar units.

pKi: −log10 of the molar value.

In the assay the target is PLK1 (Homo sapiens, UniProt P53350). Nature of the assay: PLK1 Inhibition Assay I (radioactive-phosphate incorporation). It is filed as biochemical. The conditions noted are these: Ki(app); PLK1 Inhibition Assay I or II (table does not say which). In a few lines: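 Ki(app) values came from non-linear regression of initial rates after background subtraction, with phosphopeptide measured by phosphocellulose filter binding and scintillation counting. PLK1 at 2 nM was preincubated with compound (typically from 10 μM, 2-fold dilutions) for 10 min, then run 240 min at 25° C with 350 μM [γ-33P]ATP and 450 μM peptide substrate in HEPES pH 7.5 buffer.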
PLK1, sequence (P53350 whole entry): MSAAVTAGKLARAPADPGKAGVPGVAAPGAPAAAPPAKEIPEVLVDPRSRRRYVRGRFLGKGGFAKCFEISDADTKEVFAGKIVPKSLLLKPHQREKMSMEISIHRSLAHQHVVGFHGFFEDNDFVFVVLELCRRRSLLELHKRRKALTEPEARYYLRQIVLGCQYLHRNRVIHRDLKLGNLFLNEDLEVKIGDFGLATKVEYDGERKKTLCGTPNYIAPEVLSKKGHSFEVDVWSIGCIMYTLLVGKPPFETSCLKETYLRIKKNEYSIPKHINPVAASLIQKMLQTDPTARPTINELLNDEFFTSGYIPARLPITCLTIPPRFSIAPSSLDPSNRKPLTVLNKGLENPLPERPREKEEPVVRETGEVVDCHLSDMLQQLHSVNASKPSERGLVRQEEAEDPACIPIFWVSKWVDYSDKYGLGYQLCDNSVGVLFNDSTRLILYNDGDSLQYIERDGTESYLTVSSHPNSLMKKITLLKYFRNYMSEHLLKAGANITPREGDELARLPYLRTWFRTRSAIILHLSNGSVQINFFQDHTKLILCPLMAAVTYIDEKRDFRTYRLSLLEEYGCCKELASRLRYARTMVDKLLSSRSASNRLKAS
Regarding `C[C@H](N)C(=O)N1CCC([C@@H](C)Nc2ncc(C#N)c(-c3c[nH]c4ncc(C(F)(F)F)cc34)n2)CC1` [Compound I-243, 2-((R)-1-(1-((S)-2-aminopropanoyl)piperidin-4-yl)ethylamino)-4-(5-(trifluoromethyl)-1H-pyrrolo[2,3-b]pyridin-3-yl)pyrimidine-5-carbonitrile], the pKi was greater than 8.52. With `C[C@@H](Nc1ncc(C#N)c(-c2c[nH]c3ncc(C(F)(F)F)cc23)n1)c1ccc(N2CCN3CCC[C@H]3C2)nc1` [Compound I-291, 2-((R)-1-(6-((S)-hexahydropyrrolo[1,2-a]pyrazin-2(1H)-yl)pyridin-3-yl)ethylamino)-4-(5-(trifluoromethyl)-1H-pyrrolo[2,3-b]pyridin-3-yl)pyrimidine-5-carbonitrile], the pKi was greater than 8.52.

For the compound `N#CCNc1ncc(C#N)c(-c2c[nH]c3ncc(C(F)(F)F)cc23)n1` [Compound I-71, 2-(cyanomethylamino)-4-(5-(trifluoromethyl)-1H-pyrrolo[2,3-b]pyridin-3-yl)pyrimidine-5-carbonitrile], the pKi was less than 7.40.

In the case of `C[C@@H](Nc1ncc(C#N)c(-c2c[nH]c3ncc(C(F)(F)F)cc23)n1)c1ccc(S(N)(=O)=O)cc1` [Compound I-196, 4-((1R)-1-(5-cyano-4-(5-(trifluoromethyl)-1H-pyrrolo[2,3-b]pyridin-3-yl)pyrimidin-2-ylamino)ethyl)benzenesulfonamide], the pKi is greater than 8.52. In the case of `CC(Nc1ncc(C#N)c(-c2c[nH]c3ncc(C(F)(F)F)cc23)n1)c1ccc(N(C)C)nc1` (stereo not drawn) [Compound I-143, 2-(1-(6-(dimethylamino)pyridin-3-yl)ethylamino)-4-(5-(trifluoromethyl)-1H-pyrrolo[2,3-b]pyridin-3-yl)pyrimidine-5-carbonitrile], the pKi was greater than 8.52. For `C[C@@H](Nc1ncc(C#N)c(-c2c[nH]c3ncc(C(F)(F)F)cc23)n1)c1ccc(C(N)=O)cc1` [Compound I-176, 4-((1R)-1-(5-cyano-4-(5-(trifluoromethyl)-1H-pyrrolo[2,3-b]pyridin-3-yl)pyrimidin-2-ylamino)ethyl)benzamide] the value was greater than 8.52; for `CC[C@@H](N)C(=O)N1CCC([C@@H](C)Nc2ncc(C#N)c(-c3c[nH]c4ncc(C(F)(F)F)cc34)n2)CC1` [Compound I-226, 2-((R)-1-(1-((R)-2-aminobutanoyl)piperidin-4-yl)ethylamino)-4-(5-(trifluoromethyl)-1H-pyrrolo[2,3-b]pyridin-3-yl)pyrimidine-5-carbonitrile], greater than 8.52. For the compound `N#Cc1cnc(NC(CO)C2CCOCC2)nc1-c1c[nH]c2ncc(C(F)(F)F)cc12` (stereo not drawn) [Compound I-105, 2-(2-hydroxy-1-(tetrahydro-2H-pyran-4-yl)ethylamino)-4-(5-(trifluoromethyl)-1H-pyrrolo[2,3-b]pyridin-3-yl)pyrimidine-5-carbonitrile], the pKi was 7.40 to 8.52. Turning to `CC(C)(Nc1ncc(C#N)c(-c2c[nH]c3ncc(C(F)(F)F)cc23)n1)C(=O)O` [IA-9, 2-(5-cyano-4-(5-(trifluoromethyl)-1H-pyrrolo[2,3-b]pyridin-3-yl)pyrimidin-2-ylamino)-2-methylpropanoic acid], the pKi is less than 7.40.

Take `CC(Nc1ncc(C#N)c(-c2c[nH]c3ncc(C(F)(F)F)cc23)n1)C1(F)CCN(C(=O)[C@@H](C)O)CC1` (stereo partly drawn) [Compound I-237, 2-(1-(4-fluoro-1-((R)-2-hydroxypropanoyl)piperidin-4-yl)ethylamino)-4-(5-(trifluoromethyl)-1H-pyrrolo[2,3-b]pyridin-3-yl)pyrimidine-5-carbonitrile]: the pKi is greater than 8.52.

In the case of `CC(Nc1ncc(C#N)c(-c2c[nH]c3ncc(C(F)(F)F)cc23)n1)C1CCN(C(=O)CN)CC1` (stereo not drawn) [Compound I-188, 2-(1-(1-(2-aminoacetyl)piperidin-4-yl)ethylamino)-4-(5-(trifluoromethyl)-1H-pyrrolo[2,3-b]pyridin-3-yl)pyrimidine-5-carbonitrile], the pKi is greater than 8.52.

Consider `CCN(CC)S(=O)(=O)c1ccc(C(C)Nc2ncc(C#N)c(-c3c[nH]c4ncc(C(F)(F)F)cc34)n2)cc1` (stereo not drawn) [Compound I-181, 4-(1-(5-cyano-4-(5-(trifluoromethyl)-1H-pyrrolo[2,3-b]pyridin-3-yl)pyrimidin-2-ylamino)ethyl)-N,N-diethylbenzenesulfonamide], for which the pKi is 7.40 to 8.52. `CC(O)CNc1ncc(C#N)c(-c2c[nH]c3ncc(C(F)(F)F)cc23)n1` (stereo not drawn) [Compound I-91, 2-(2-hydroxypropylamino)-4-(5-(trifluoromethyl)-1H-pyrrolo[2,3-b]pyridin-3-yl)pyrimidine-5-carbonitrile]: the pKi was 7.40 to 8.52.

Consider `C[C@@H](Nc1ncc(C#N)c(-c2c[nH]c3ncc(C(F)(F)F)cc23)n1)C1CCN(C(=O)[C@@H]2CCC[C@@H]2N)CC1` [Compound I-246, 2-((R)-1-(1-((1R,2S)-2-aminocyclopentanecarbonyl)piperidin-4-yl)ethylamino)-4-(5-(trifluoromethyl)-1H-pyrrolo[2,3-b]pyridin-3-yl)pyrimidine-5-carbonitrile], for which the pKi was greater than 8.52. In the case of `COc1ccccc1CNc1ncc(C#N)c(-c2c[nH]c3ncc(C(F)(F)F)cc23)n1` [Compound I-15, 2-(2-methoxybenzylamino)-4-(5-(trifluoromethyl)-1H-pyrrolo[2,3-b]pyridin-3-yl)pyrimidine-5-carbonitrile], the pKi was less than 7.40. In the case of `CC(Nc1ncc(C#N)c(-c2c[nH]c3ncc(C(F)(F)F)cc23)n1)c1ccc(S(C)(=O)=O)cc1` (stereo not drawn) [Compound I-155, 2-(1-(4-(methylsulfonyl)phenyl)ethylamino)-4-(5-(trifluoromethyl)-1H-pyrrolo[2,3-b]pyridin-3-yl)pyrimidine-5-carbonitrile], the pKi was greater than 8.52. Under `C[C@@H](Nc1ncc(C#N)c(-c2c[nH]c3ncc(C(F)(F)F)cc23)n1)C1CCN(C(=O)[C@H]2C[C@@H](N)C2)CC1` [Compound I-253, 2-((R)-1-(1-((1s,3S)-3-aminocyclobutanecarbonyl)piperidin-4-yl)ethylamino)-4-(5-(trifluoromethyl)-1H-pyrrolo[2,3-b]pyridin-3-yl)pyrimidine-5-carbonitrile] stands greater than 8.52; under `N#Cc1cnc(SC2CCCCC2)nc1-c1c[nH]c2ncc(C(F)(F)F)cc12` [II-13, 2-(cyclohexylthio)-4-(5-(trifluoromethyl)-1H-pyrrolo[2,3-b]pyridin-3-yl)pyrimidine-5-carbonitrile], less than 7.40. For the compound `CC(Nc1ncc(C#N)c(-c2c[nH]c3ncc(C(F)(F)F)cc23)n1)c1cccnc1` (stereo not drawn) [Compound I-51, 2-(1-(pyridin-3-yl)ethylamino)-4-(5-(trifluoromethyl)-1H-pyrrolo[2,3-b]pyridin-3-yl)pyrimidine-5-carbonitrile], the pKi was greater than 8.52. As for `CN(Cc1ccccc1)c1ncc(C#N)c(-c2c[nH]c3ncc(C(F)(F)F)cc23)n1` [Compound I-8, 2-(benzyl(methyl)amino)-4-(5-(trifluoromethyl)-1H-pyrrolo[2,3-b]pyridin-3-yl)pyrimidine-5-carbonitrile], the pKi was less than 7.40. As to `CC(Nc1ncc(C#N)c(-c2c[nH]c3ncc(C(F)(F)F)cc23)n1)C1CN(C(=O)C(C)(C)O)C1` (stereo not drawn) [Compound I-221, 2-(1-(1-(2-hydroxy-2-methylpropanoyl)azetidin-3-yl)ethylamino)-4-(5-(trifluoromethyl)-1H-pyrrolo[2,3-b]pyridin-3-yl)pyrimidine-5-carbonitrile], the pKi was 7.40 to 8.52.
